From patent publication US8703796B2, “3H-imidazo [4, 5-B] pyridine-6-carboxamides as anti-inflammatory agents” (Boehringer Ingelheim International GmbH, priority 2008, dated 2014)

The compounds below were run against T1, recombinant human mPGES-1 (Homo sapiens, UniProt O14684) (assay: mPGES-1 inhibition, HTRF detection of PGE2).
T1 construct: made in house; host or cells: Rosetta E. coli (microsomal/membrane fraction)
T1 sequence (O14684 1-152): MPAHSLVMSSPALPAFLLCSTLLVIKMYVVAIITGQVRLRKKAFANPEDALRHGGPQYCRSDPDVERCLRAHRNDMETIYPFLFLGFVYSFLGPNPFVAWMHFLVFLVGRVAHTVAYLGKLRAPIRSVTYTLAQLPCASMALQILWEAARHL
Type: biochemical
Description: Microsomes from Rosetta E. coli bacteria expressing recombinant human mPGES-1 is dissolved in 0.1 M KPi pH 7.4 buffer containing 2.5 mM GSH. 50 μl of the enzyme is subsequently dispensed in a 384-well plate. 0.5 μl of the inhibitor dissolved in DMSO at is thereafter added to each well and incubated for 25 minutes at room temperature. Subsequently, 2 μl of PGH2 dissolved in an appropriate solvent is added to each well and after one minute the acidified stop solution containing FeCl2 is added. 4 μl of the total volume is transferred to a separate plate and diluted 750-fold in two separate steps before HTRF detection of PGE2.
The HTRf detection is performed by the use of a commercially available kit from CisBio essentially according to the manufacturer's protocol. Briefly, 10 μl of the diluted sample is transferred to a white 384-well plate. 5 μl of d2 and 5 μl Eu3+-Cryptate labeled anti-PGE2 is added to each well containing samples by the use of a Multidrop. The plate is covered with a plastic self-adhesive film, centrifuged at 1200 rpm for 1 minute and subsequently stored at +4° C. over night.
After over night incubation the fluorescence is measured by the use of an appropriate microplate reader. The fluorescence of europium cryptate, and d2 are measured using the following excitation and emission wavelength, europium cryptate: λmax^ex=307 nm, λmax^em=620 nm and d2: λmax^ex=620 nm, λmax^em=665 nm), respectively. The extent of the specific FRET is measured as a ratio of the emission intensity at 665 nm vs. that at 620 nm. A standard curve using synthetic PGE2 is used to quantify the amount of PGE2 in unknown samples.

inhibition at 10 µM [%] | inhibition at 1 µM [%] | SMILES
100 |  | Cn1c(Nc2c(Cl)cc(F)cc2Cl)nc2cc(C(=O)N[C@H]3CC[C@H](C(F)(F)F)CC3)c(OCCF)nc21 [Example 870, 2-(2,6-Dichloro-4-fluoro-phenylamino)-5-(2-fluoro-ethoxy)-N-(trans-4-trifluoromethyl-cyclohexyl)-3-methyl-3H-imidazo[4,5-b]pyridine-6-carboxamide]
100 |  | Cn1c(Nc2c(Cl)cncc2Cl)nc2cc(C(=O)N[C@H]3CC[C@H](C(F)(F)F)CC3)c(OCCF)nc21 [Example 833, 2-(3,5-Dichloro-pyridin-4-ylamino)-5-(2-fluoro-ethoxy)-N-(trans-4-trifluoromethyl-cyclohexyl)-3-methyl-3H-imidazo[4,5-b]pyridine-6-carboxamide]
98 |  | Cn1c(Nc2c(Cl)cncc2Cl)nc2cc(C(=O)NCc3ncccc3C(F)(F)F)c(OCC(F)(F)F)nc21 [Example 851, 2-(3,5-Dichloro-pyridin-4-ylamino)-5-(2,2,2-trifluoro-ethoxy)-N-((3-trifluoromethyl-pyridin-2-yl)-methyl)-3-methyl-3H-imidazo[4,5-b]pyridine-6-carboxamide]
93 |  | CCOc1nc2[nH]c(Nc3c(Cl)cncc3Cl)nc2cc1C(=O)Nc1ccc(Br)cc1 [Example 856, 2-(3,5-Dichloro-pyridin-4-ylamino)-5-ethoxy-N-(4-bromo-phenyl)-3H-imidazo[4,5-b]pyridine-6-carboxamide]
100 |  | COc1nc2c(cc1C(=O)NCc1ccccc1C(F)(F)F)nc(Nc1c(Cl)cccc1Cl)n2C [Example 861, 2-(2,6-Dichloro-phenylamino)-5-methoxy-N-(2-trifluoromethyl-benzyl)-3-methyl-3H-imidazo[4,5-b]pyridine-6-carboxamide]
89 |  | O=C(Nc1ccc(Br)cc1)c1cc2nc(Nc3c(Cl)cncc3Cl)[nH]c2nc1OC1CCOC1 (stereo not shown) [Example 791, 2-(3,5-Dichloro-pyridin-4-ylamino)-5-(tetrahydrofuran-3-yl-oxy)-N-(4-bromo-phenyl)-3H-imidazo[4,5-b]pyridine-6-carboxamide]
99 |  | O=C(Nc1ccc(Br)cc1)c1cc2nc(Nc3c(Cl)cc(F)cc3Cl)[nH]c2nc1OCC(F)(F)F [Example 820, 2-(2,6-Dichloro-4-fluoro-phenylamino)-5-(2,2,2-trifluoro-ethoxy)-N-(4-bromo-phenyl)-3H-imidazo[4,5-b]pyridine-6-carboxamide]
89 |  | O=C(N[C@H]1CC[C@H](C(F)(F)F)CC1)c1cc2nc(Nc3c(Cl)cncc3Cl)[nH]c2nc1OCC(F)(F)F [Example 859, 2-(3,5-Dichloro-pyridin-4-ylamino)-5-(2,2,2-trifluoro-ethoxy)-N-(trans-4-trifluoromethyl-cyclohexyl)-3H-imidazo[4,5-b]pyridine-6-carboxamide]
95 |  | Cn1c(Nc2cnccc2C(F)(F)F)nc2cc(C(=O)N[C@H]3CC[C@H](C(F)(F)F)CC3)c(OCC(F)F)nc21 [Example 789, 2-(4-Trifluoromethyl-pyridin-3-ylamino)-5-(2,2-difluoro-ethoxy)-N-(trans-4-trifluoromethyl-cyclohexyl)-3-methyl-3H-imidazo[4,5-b]pyridine-6-carboxamide]
96 |  | Cn1c(Nc2c(Cl)cc(F)cc2Cl)nc2cc(C(=O)Nc3cc(C(F)(F)F)ccn3)c(OCC(F)F)nc21 [Example 817, 2-(2,6-Dichloro-4-fluoro-phenylamino)-5-(2,2-difluoro-ethoxy)-N-(4-trifluoromethyl-pyridin-2-yl)-3-methyl-3H-imidazo[4,5-b]pyridine-6-carboxamide]

Continued, compound first:

SMILES | inhibition at 10 µM [%] | inhibition at 1 µM [%]
COCCOc1nc2[nH]c(Nc3c(Cl)cncc3Cl)nc2cc1C(=O)NCC(F)(F)C(F)(F)C(F)(F)C(F)(F)F [Example 802, 2-(3,5-Dichloro-pyridin-4-ylamino)-5-(2-methoxy-ethoxy)-N-(2,2,3,3,4,4,5,5,5-nonafluoro-pentyl)-3H-imidazo[4,5-b]pyridine-6-carboxamide] | 96 | 
CC(C)n1c(Nc2c(F)cccc2Cl)nc2cc(C(=O)NC3CCC(C)(C)CC3)cnc21 [Example 511, 2-(2-Chloro-6-fluorophenylamino)-N-(4,4-dimethylcyclohexyl)-3-isopropyl-3H-imidazo[4,5-b]pyridine-6-carboxamide] | 96 | 
Cn1c(Nc2c(F)cccc2C(F)(F)F)nc2cc(C(=O)Nc3ccc(Br)cc3)c(OCC(F)F)nc21 [Example 771, N-(4-Bromophenyl)-2-(2-fluoro-6-trifluoromethylphenylamino)-5-(2,2-difluoro-ethoxy)-3-methyl-3H-imidazo[4,5-b]pyridine-6-carboxamide] |  | 100
Cn1c(Nc2c(Cl)cncc2Cl)nc2cc(C(=O)NCC(F)(F)C(F)(F)C(F)(F)C(F)(F)F)c(OC3CCOC3)nc21 (stereo not shown) [Example 849, 2-(3,5-Dichloro-pyridin-4-ylamino)-5-(tetrahydrofuran-3-yl-oxy)-N-(2,2,3,3,4,4,5,5,5-nonafluoro-pentyl)-3-methyl-3H-imidazo[4,5-b]pyridine-6-carboxamide] | 98 | 
Cn1c(Nc2c(Cl)cccc2Cl)nc2cc(C(=O)N[C@H]3CC[C@H](C)CC3)cnc21 [Example 453, 2-(2,6-Dichlorophenylamino)-3-methyl-N-((1r,4r)-4-methylcyclohexyl)-3H-imidazo[4,5-b]pyridine-6-carboxamide] | 98 | 
O=C(Nc1ccc(Br)cc1)c1cc2nc(Nc3c(F)cccc3Cl)[nH]c2nc1OCC(F)F [Example 776, N-(4-Bromo-phenyl)-2-(2-fluoro-6-chloro-phenylamino)-5-(2,2-difluoroethoxy)-3H-imidazo[4,5-b]pyridine-6-carboxamide] |  | 100
Cn1c(Nc2c(Cl)cccc2Cl)nc2cc(C(=O)N[C@H]3CC[C@H](C(F)(F)F)CC3)cnc21 [Example 174, 2-(2,6-Dichloro-phenylamino)-3-methyl-3H-imidazo[4,5-b]pyridine-6-carboxylic acid (trans-4-trifluoromethyl-cyclohexyl)-amide] | 99 | 
Cc1ccnc(Cl)c1Nc1nc2cc(C(=O)N[C@H]3CC[C@H](C(F)(F)F)CC3)c(OCC(F)F)nc2n1C [Example 788, 2-(2-Chloro-4-methyl-pyridin-3-ylamino)-5-(2,2-difluoro-ethoxy)-N-(trans-4-trifluoromethyl-cyclohexyl)-3-methyl-3H-imidazo[4,5-b]pyridine-6-carboxamide] | 98 | 
CCCCCCNC(=O)c1cnc2c(c1)nc(Nc1c(Cl)cccc1Cl)n2C [Example 439, 2-(2,6-Dichlorophenylamino)-N-hexyl-3-methyl-3H-imidazo[4,5-b]pyridine-6-carboxamide] | 91 | 
O=C(Nc1ccc(Cl)c(F)c1)c1cnc2[nH]c(Nc3c(Cl)cccc3Cl)nc2c1 [Example 154, 2-(2,6-Dichloro-phenylamino)-3H-imidazo[4,5-b]-pyridine-6-carboxylic acid (4-chloro-3-fluoro-phenyl)-amide] | 91 | 
Cn1c(Nc2c(Cl)cccc2Cl)nc2cc(C(=O)NC3CCC(C(C)(C)C)CC3)cnc21 (stereo not shown) [Example 393, N-(4-tert-Butylcyclohexyl)-2-(2,6-dichlorophenylamino)-3-methyl-3H-imidazo[4,5-b]pyridine-6-carboxamide] | 99 | 
CC(=O)N(C)CCOc1nc2c(cc1C(=O)NCC(F)(F)C(F)(F)C(F)(F)C(F)(F)F)nc(Nc1c(Cl)cncc1Cl)n2C [Example 811, 2-(3,5-Dichloro-pyridin-4-ylamino)-5-(2-(acetyl-methyl-amino)-ethoxy)-N-(2,2,3,3,4,4,5,5,5-nonafluoro-pentyl)-3-methyl-3H-imidazo[4,5-b]pyridine-6-carboxamide] |  | 94
CC(=O)N(C)CCOc1nc2[nH]c(Nc3c(Cl)cncc3Cl)nc2cc1C(=O)NCC(F)(F)C(F)(F)C(F)(F)C(F)(F)F [Example 809, 2-(3,5-Dichloro-pyridin-4-ylamino)-5-(2-(acetyl-methyl-amino)-ethoxy)-N-(2,2,3,3,4,4,5,5,5-nonafluoro-pentyl)-3H-imidazo[4,5-b]pyridine-6-carboxamide] | 100 | 
O=C(NCC(F)(F)C(F)(F)C(F)(F)C(F)(F)F)c1cc2nc(Nc3c(Cl)cncc3Cl)[nH]c2nc1OCC(F)(F)F [Example 854, 2-(3,5-Dichloro-pyridin-4-ylamino)-5-(2,2,2-trifluoro-ethoxy)-N-(2,2,3,3,4,4,5,5,5-nonafluoro-pentyl)-3H-imidazo[4,5-b]pyridine-6-carboxamide] | 96 | 
CCCC[C@@H](C)NC(=O)c1cnc2[nH]c(Nc3c(Cl)cccc3Cl)nc2c1 [Example 517, (R)-2-(2,6-Dichlorophenylamino)-N-(hex-2-yl)-3H-imidazo[4,5-b]pyridine-6-carboxamide] | 100 | 
